Where no end group is shown, it is not given here. The star is where a group is joined. For = O=C*
Key:
murine ERα = test: In vivo ERα RT-PCR in 4T1 primary breast tumors of Balb/C mice; design: species or system mouse; conditions: Balb/C mice with 4T1 cells in mammary fat pads, 20 μg every fourth day for 25 days
Method: 2.5×10^4 4T1 breast cancer cells were inoculated into the mammary fat pads of 8-week old Balb/C mice. The animals were subsequently treated with either PBS alone, the Rdm control peptide (20 μg) or Foxy-5 (20 μg), every 4th day, for 25 days. RNA was extracted from primary breast tumors from 4 animals in each group, and subjected to RT-PCR for murine ERα. Shown are primary tumor samples from two animals of each treatment group.
2.5×10^4 4T1 breast cancer cells were inoculated into the mammary fat pads of 8 week old Balb/C mice, that were subsequently treated with either PBS alone, the Rdm control peptide (20 μg), or Foxy-5 (20 μg) every 4th day, for 25 days as described in a previous publication from the inventors (9). RNA was extracted from flash frozen primary breast tumors from 4 animals in each group, and subjected to RT-PCR for murine ERα.

[1] = tested on: progesterone receptor (PR); test: Progesterone receptor mRNA by semi-nested RT-PCR in MDA-MB-231 cells; format: cell-based, human; conditions: after 96 hours stimulation
Text: A: Following treatment, cells were lysed and subjected to SDS-PAGE, transferred to nitrocellulose membranes and blotted for phospho-ERα expression. The positive control (Pos) represents cell lysates from T47D cells expressing ERα B and C: RNA was also extracted from stimulated cells and samples tested for progesterone receptor (PR) (B) and pS2 (C) mRNA using semi-nested RT-PCR. The positive control (Pos) is RNA extracted from T47D cells that express ERα. The negative control represents a water control. PCR results are representative of three separate experiments.
cDNA was synthesized from 1 μg of total RNA using M-MuLV reverse transcriptase (Fermentas) in a MJ Mini Personal Thermal Cycler (Bio-Rad (Hercules Calif.)). All RT-PCR was performed in a designated clean PCR hood. RT-PCR was performed using a master mix containing with 5 μl of 10× buffer, 5 μl of 25 mM MgCl2, 1 μl 10 mM dNTP, 1 μl forward primer, 1 μl reverse primer and 0.2 μl of Taq polymerase (Fermentas (Ontario, Canada)) per sample. For detection of the progesterone receptor (PR), semi nested RT-PCR was performed to increase sensitivity, whereby 10 μl of the initial PCR reaction product was added to a second PCR reaction with a second internal reverse primer. Both A and β isoforms are amplified with these primers.

ERα = ERα protein expression by Western blot in stimulated MDA-MB-231 cells; format: cell-based, human; conditions: stimulation 24 and 48 hours, rWnt-5a 0.6 μg/ml, rWnt-3a 0.1 μg/ml, peptides 100 μM
Method: Breast cancer cells were grown in 6 well plates, and stimulated with recombinant Wnt-5a protein (rW5a), the Wnt-5a derived Foxy-5 peptide (F5), recombinant Wnt-3a protein (rW3a), or a formylated random hexapeptide (Rdm) for 24 or 48 h. Following treatment cells were lysed and subjected to SDS-PAGE, transferred to nitrocellulose membranes and blotted for ERα expression. A: MDA-MB-231 cells stimulated with recombinant Wnt-5a, Foxy-5, Wnt-3a, Rdm. B: MDA-MB-468 cells stimulated with recombinant Wnt-5a or Foxy-5. C: 4T1 cells stimulated with recombinant Wnt-5a or Foxy-5. Positive controls (Pos) were included in order to confirm the correct band size for ERα. Two different positive controls were used: T47D cell lysates known to express ERα and MDA-MB-231 cells transiently transfected with a full length ERα plasmid, resulting in extremely high ERα expression (top row, right panel, third row, right panel).
Stimulation of cells was performed with recombinant Wnt-5a (0.6 μg/ml) and recombinant Wnt-3a (0.1 μg/ml and in a control experiment, 0.6 μg/ml) (R&D Systems Abington, UK) for times as indicated. The Wnt-5a derived formylated hexapeptide, Foxy-5 (formyl-MDGCEL) (SEQ. ID. NO. 1) designed in the laboratory of the inventors, and a formylated random hexapeptide (formyl-MSADVG) (SEQ: ID: NO: 16) were either synthesized by Pepscan Presto (Lelystad, The Netherlands) or Inbiolabs (Tallinn, Estonia). The peptides were purified by RP-HPLC and mass spectrometry, and the >95% pure peptides were synthesized three times. Cells were treated with Foxy-5 or random peptide at a concentration of 100 μM for times as indicated. All other chemicals if not otherwise stated were purchased from Sigma Chemicals (St. Louis, Mo.).
Cells were lysed in Triton lysis buffer (50 mM Tris (pH7.5), 1% Triton x-100, 140 mM NaCl, 0.5 mM EDTA, 0.5 MgCl2, 10 mM NaF) with the addition of fresh leupeptin (1 μg/ml), Pefabloc (2 mM), aprotinin (20 μg/ml) and Na3VO4 (4 mM). […] Scanning and densitometry was performed using a Bio-Rad (Hercules Calif.) GS-800 densitometer with Quantity One software. […]

Molecule	ERα expression in primary tumors (murine ERα)	PR mRNA [1]	levels of ERα protein (ERα)
formyl-MDGCEL (For-MDGCEL; listed as Homo sapiens) [Foxy-5]	strong ERα expression	detected	
recombinant Wnt-5a: recombinant Wnt-5a protein (R&D Systems) (protein, UniProt P41221 62-380, looked up) Protein Wnt-5a: IIGAQPLCSQLAGLSQGQKKLCHLYQDHMQYIGEGAKTGIKECQYQFRHRRWNCSTVDNTSVFGRVMQIGSRETAFTYAVSAAGVVNAMSRACREGELSTCGCSRAARPKDLPRDWLWGGCGDNIDYGYRFAKEFVDARERERIHAKGSYESARILMNLHNNEAGRRTVYNLADVACKCHGVSGSCSLKTCWLQLADFRKVGDALKEKYDSAAAMRLNSRGKLVQVNSRFNSPTTQDLVYIDPSPDYCVRNESTGSLGTQGRLCNKTSEGMDGCELMCCGRGYDQFKTVQTERCHCKFHWCCYVKCKKCTEIVDQFVCK		detected	increase

— patent US20110124574A1, “RESTORATION OF ESTROGEN RECEPTOR-(ALPHA) ACTIVITY” (priority 2008, published 2011)
